Key:
[1] = tested on: OPM-2 cell line (human multiple myeloma); test: OPM-2 multiple myeloma subcutaneous xenograft in CB17 SCID mice (tumor volume, doubling time, survival, body weight); type: in vivo; conditions: for tolerability: repeated/fractionated dosing versus the single equal dose
Procedure: The OPM-2 cell line (human multiple myeloma) was purchased from American Type Culture Collection (ATCC, Rockville, MD) and maintained in McCoy's 5a media supplemented with 10% fetal bovine serum. Female CB17 SCID mice approximately 5-7 weeks of age were injected subcutaneously with 1×10^7 viable cells (in ˜100 μL Dulbecco's PBS) into the right flank. The study was initiated when tumor size had reached a pre-determined size (approximately 150-200 mm3). The mice were given potassium iodide at a concentration of 0.1% in their drinking water to block possible free iodide in the drug formulation three days prior to injection and continuing through two weeks post-injection. Mice were randomly assigned to dose groups. Tumor volume was measured with a caliper during the course of the study. Tumor doubling time calculation TDT=D×log(2)/log(1+r/100), where D equals days between measurements and r=rate of growth; r/100=(V2−V1/V1)×100%. Statistical analysis: 1-way Anova, Dunnett's test.

[2] = tested on: xenograft, orthotopic and transgenic cancer and cancer stem cell derived animal models; conditions: radioiodinated CLR1404; cited from earlier work
[3] = tested on: xenograft, orthotopic and transgenic cancer and cancer stem cell derived animal models; test: Tumor selectivity, uptake and retention in animal tumor models; type: in vivo; conditions: variety of tumor models
[4] = Clinical trial: single bolus dose (Cohort 4) versus fractionated dose (Cohort 5); type: in vivo, human
Procedure: Dosing is based upon body surface area or BSA in millicuries/meter squared (mCi/m^2). Patients either received a single 30 minute infusion of 31.25 mCi/m^2 on day 1 or a 30 minute fractionated infusion dose of 15.625 mCi/m^2 on day 1 and then repeated on day 8.

Row | Compound | tolerability [1] | tumor selectivity (models showing it / models tested) [2] | sequestration and retention by cancer cells and cancer stem cells [3] | antitumor activity ([1]; all doses, model of multiple myeloma) | survival ([1]; fractionated dosing) | tumor doubling time ([1]; fractionated dosing versus all other treatments) | reduction in tumor volume vs control ([1]; fractionated dosing, after day 26) | reduction in tumor volume vs all other treatments ([1]; fractionated dosing, day 52, p<0.05) | average reduction in surrogate markers of efficacy ([4]; fractionated dose (Cohort 5)) [%] | average progression free survival ([4]; fractionated dose (Cohort 5), assessment ongoing) [months] | median overall survival ([4]; fractionated dose, 15.625 mCi/m^2 on day 1 and day 8 (Cohort 5), assessment still ongoing) [months] | average progression free survival ([4]; single bolus dose (Cohort 4)) [months] | average reduction in surrogate markers of efficacy ([4]; single bolus dose (Cohort 4)) [%] | median overall survival ([4]; single bolus dose, 31.25 mCi/m^2 on day 1 (Cohort 4)) [months]
1 | C[N+](C)(C)CCOP(=O)([O-])OCCCCCCCCCCCCCCCCCCc1ccc(I)cc1 [CLR1404] | well tolerated and is better tolerated than a single equal dose | 55/60 | sequestered and selectively retained |  |  |  |  |  |  |  |  |  |  | 
2 | ^131I-labeled 18-(p-iodo-phenyl)octadecyl phosphocholine [CLR 131] | well tolerated and better tolerated than the single equal dose |  |  | marked antitumor activity | statistically significant survival benefit | markedly increased | statistically significant reduction | statistically significant reduction | 40 | 2.9 | 7.4 | 2.8 | 29 | 6.5

— US20240131204A1, “Fractionated Dosing of a Phospholipid Ether Analog for the Treatment of Cancer” (Cellectar Biosciences, Inc., priority 2019, published 2024)
